Among the data in patent publication US9914722B2, “Compounds for treating spinal muscular atrophy” (PTC Therapeutics Inc., priority 2012, dated 2018) are EC (1.5-fold), maximal fold induction and melting point values, retold here.

Data set [1] has as its system full length SMN2 minigene mRNA containing SMN2 exon 7 (SMN2-A minigene). The data set is described as follows: SMN2 minigene mRNA splicing RT-qPCR assay in cultured cells. The data set is classed as cell-based, human. The settings on record: Homo sapiens, HEK293-H; HEK293H cells stably transfected with SMN2-A minigene, 24 hours, 7-point concentration curve; concentration giving 1.5-fold SMN2 full length mRNA vs vehicle; read-out: EC1.5x for production of full length SMN2 mRNA. How it is done: SMN2 Minigene mRNA Splicing RT-qPCR Assay in Cultured Cells
The reverse transcription-quantitative PCR-based (RT-qPCR) assay is used to quantify the level of the full length SMN2 minigene mRNA containing SMN2 exon 7 in a HEK293H cell line stably transfected with said minigene and treated with a test compound.
Protocol. HEK293H cells stably transfected with the SMN2-A minigene construct described above (10,000 cells/well) are seeded in 200 μL of cell culture medium (DMEM plus 10% FBS, with 200 μg/mL hygromycin) in 96-well flat-bottom plates and the plate is immediately swirled to ensure proper dispersal of cells, forming an even monolayer of cells. Cells are allowed to attach for at least 4-6 hours. Test compounds are serially diluted 3.16-fold in 100% DMSO to generate a 7-point concentration curve. A solution of test compound (1 μL, 200× in DMSO) is added to each cell-containing well and the plate is incubated for 24 hours in a cell culture incubator (37° C., 5% CO2, 100% relative humidity). Two replicates are prepared for each test compound concentration. The cells are then lysed in Cells-To-Ct lysis buffer and the lysate is stored at −80° C.
Primer SMN Forward A (SEQ ID NO. 1) hybridizes to a nucleotide sequence in exon 7 (nucleotide 22 to nucleotide 40), primer SMN Reverse A (SEQ ID NO. 2) hybridizes to a nucleotide sequence in the coding sequence of Firefly luciferase, SMN Probe A (SEQ ID NO. 3) hybridizes to a nucleotide sequence in exon 7 (nucleotide 50 to nucleotide 54) and exon 8 (nucleotide 1 to nucleotide 21). The combination of these three oligonucleotides detects only SMN1 or SMN2 minigenes (RT-qPCR) and will not detect endogenous SMN1 or SMN2 genes.
The SMN forward and reverse primers are used at final concentrations of 0.4 μM. The SMN probe is used at a final concentration of 0.15 μM. The GAPDH primers are used at final concentrations of 0.2 μM and the probe at 0.15 μM.
The SMN2-minigene GAPDH mix (15 μL total volume) is prepared by combining 7.5 μL of 2×RT-PCR buffer, 0.4 μL of 25×RT-PCR enzyme mix, 0.75 μL of 20×GAPDH primer-probe mix, 4.0075 μL of water, 2 μL of 10-fold diluted cell lysate, 0.06 μL of 100 μM SMN forward primer, 0.06 μL of 100 μM SMN reverse primer, and 0.225 μL of 100 μM SMN probe.
PCR is carried out at the following temperatures for the indicated time: Step 1: 48° C. (15 min); Step 2: 95° C. (10 min); Step 3: 95° C. (15 sec); Step 4: 60° C. (1 min); then repeat Steps 3 and 4 for a total of 40 cycles.
Each reaction mixture contains both SMN2-A minigene and GAPDH primers/probe sets (multiplex design), allowing simultaneous measurement of the levels of two transcripts.
Two SMN spliced products are generated from the SMN2 minigene. The first spliced product containing exon 7, corresponding to SMN2 full length mRNA, is referred to herein using the term “SMN2 minigene FL.” The second spliced product lacking exon 7 is referred to herein using the term “SMN2 minigene Δ7.”
The increase of SMN2 minigene FL mRNA relative to that in cells treated with vehicle control is determined from real-time PCR data using a modified ΔΔCt method (as described in Livak and Schmittgen, Methods, 2001, 25:402-8). The amplification efficiency (E) is calculated from the slope of the amplification curve for SMN2 minigene FL and GAPDH mRNA individually. The abundance of SMN2 minigene FL and GAPDH mRNA are then calculated as (1+E)^−Ct, where Ct is the threshold value for each amplicon. The abundance of SMN2 minigene FL is normalized to GAPDH abundance. The normalized SMN2 minigene FL abundance from test compound-treated samples is then divided by normalized SMN2 minigene FL abundance from vehicle-treated cells to determine the level of SMN2 FL mRNA relative to vehicle control. […]
For orientation: Quantitative PCR measures a nucleic acid by following its amplification.

A further data set deals with Smn protein. The data set is described as follows: Smn protein assay (Smn HTRF) in cultured cells. Format: cell-based, human. Conditions: Homo sapiens, Fibroblast, GM03813 SMA Type 1 patient fibroblasts, 48 hours, HTRF; for maximal fold induction: 7-point concentration data, relative to vehicle, read-out: maximum fold (Fold) increase of Smn protein; for EC (1.5-fold): concentration producing 1.5 times Smn protein vs DMSO vehicle, read-out: EC1.5x for Smn protein expression. Here is the method:
Smn Protein Assay in Cultured Cells
The Smn HTRF (homogeneous time resolved fluorescence) assay is used to quantify the level of Smn protein in SMA patient fibroblast cells treated with test compounds.
Protocol. Cells are thawed and cultured in DMEM-10% FBS for 72 hours. Cells are trypsinized, counted and re-suspended to a concentration of 25,000 cells/mL in DMEM-10% FBS. The cell suspension is plated at 5,000 cells per well in a 96 well microtiter plate and incubated for 3 to 5 hours. […] Test compounds are serially diluted 3.16-fold in 100% DMSO to generate a 7-point concentration curve. 1 μL of test compound solution is transferred to cell-containing wells and cells are incubated for 48 hours in a cell culture incubator (37° C., 5% CO2, 100% relateive humidity). Triplicate samples are set up for each test compound concentration. After 48 hours, the supernatant is removed from the wells and 25 μL of the RIPA lysis buffer, containing protease inhibitors, is added to the wells and incubated with shaking at room temperature for 1 hour. 25 μL of the diluent is added and then 35 μL of the resulting lysate is transferred to a 384-well plate, where each well contains 5 μL of the antibody solution (1:100 dilution of anti-SMN d2 and anti-SMN kryptate in SMN reconstitution buffer). The plate is centrifuged for 1 minute to bring the solution to the bottom of the wells, then incubated overnight at room temperature. Fluorescence for each well of the plate at 665 nm and 620 nm is measured on an EnVision multilabel plate reader (Perkin-Elmer).
The normalized fluorescence signal is calculated for each sample, Blank and vehicle control well by dividing the signal at 665 nm by the signal at 620 nm. Normalizing the signal accounts for possible fluorescence quenching due to the matrix effect of the lysate. The AF value (a measurement of Smn protein abundance as a percent value) for each sample well is calculated by subtracting the normalized average fluorescence for the Blank control wells from the normalized fluorescence for each sample well, then dividing this difference by the normalized average fluorescence for the Blank control wells and multiplying the resulting value by 100. The ΔF value for each sample well represents the Smn protein abundance from test compound-treated samples. The ΔF value for each sample well is divided by the ΔF value for the vehicle control wells to calculate the fold increase in Smn protein abundance relative to the vehicle control.
For compounds of Formula (I) or a form thereof disclosed herein, Table 9 provides the EC1.5x for Smn protein expression that was obtained from the 7-point concentration data generated for each test compound according to the procedure of Biological Example 7. The term “EC1.5x for Smn protein expression” is defined as that concentration of test compound that is effective in producing 1.5 times the amount of Smn protein in an SMA patient fibroblast cell compared to the amount produced from the DMSO vehicle control. An EC1.5x for Smn protein expression between >3 μM and ≦10 μM is indicated by one star (*), an EC1.5x between >1 μM and ≦3 μM is indicated by two stars (**), an EC1.5x between >0.3 μM and ≦1 μM is indicated by three stars (***) and an EC1.5x≦0.3 μM is indicated by four stars (****).
For compounds of Formula (I) or a form thereof disclosed herein, Table 10 provides the maximum fold (Fold) increase of Smn protein that was obtained from the 7-point concentration data generated for each test compound according to the procedure of Biological Example 7. A maximum fold increase ≦1.2 is indicated by one star (*), a fold increase between >1.2 and ≦1.35 is indicated by two stars (**), a fold increase between >1.35 and ≦1.5 is indicated by three stars (***), a fold increase between >1.5 and ≦1.65 is indicated by four stars (****) and a fold increase >1.65 is indicated by five stars (*****).
In general terms: Time-resolved FRET reads energy transfer from a long-lived donor to a nearby acceptor.

As a reminder, the melting point is the temperature of the solid-liquid transition. `COc1ccc(-c2cc(=O)c3cc(N4CCCN(C)CC4)ccc3o2)cc1OC` [Cpd 26, 2-(3,4-dimethoxyphenyl)-6-(4-methyl-1,4-diazepan-1-yl)-4H-chromen-4-one] gave a melting point of 106 to 108 °C. For the same molecule, in data set [1], the EC (1.5-fold) fell in the range of 3 to 30 µM. Also, in the data set with Smn protein, the maximal fold induction lay within 1.35 to 1.5.
With `COc1ccc(-c2cc(=O)c3cc(N4CCNC(C)(C)C4)ccc3o2)cc1OC` [Cpd 27, 2-(3,4-dimethoxyphenyl)-6-(3,3-dimethylpiperazin-1-yl)-4H-chromen-4-one], the melting point lay within 108 to 110 °C. Also, in data set [1], the EC (1.5-fold) was 0.3 to 1 µM. Further, in the data set on Smn protein, the maximal fold induction was over 1.65 and the EC (1.5-fold) was 1 to 3 µM.
Molecule `Cc1ccn2cc(-c3cc(=O)c4cc(N5CCNCC5)ccc4o3)nc2c1` [Cpd 28, 2-(7-methylimidazo[1,2-a]pyridin-2-yl)-6-(piperazin-1-yl)-4H-chromen-4-one] showed a melting point of 228 to 232 °C. Further, the EC (1.5-fold) in data set [1] lay within 1 to 3 µM. Further, in the data set with Smn protein, the maximal fold induction was over 1.65 and the EC (1.5-fold) is 3 to 10 µM.
For `Cc1ccn2cc(-c3cc(=O)c4cc(N5CCN[C@H](C)C5)ccc4o3)nc2c1` [Cpd 29, 2-(7-methylimidazo[1,2-a]pyridin-2-yl)-6-[(3R)-3-methylpiperazin-1-yl]-4H-chromen-4-one], in that order: 150 to 155 °C, 3 to 30 µM, 1.35 to 1.5 and 3 to 10 µM.
For `Cc1ccn2cc(-c3cc(=O)c4cc(N5C[C@@H](C)N[C@@H](C)C5)ccc4o3)nc2c1` [Cpd 30, 6-[(3R,5S)-3,5-dimethylpiperazin-1-yl]-2-(7-methylimidazo[1,2-a]pyridin-2-yl)-4H-chromen-4-one], the melting point is 102 to 104 °C. Further, the EC (1.5-fold) in data set [1] is 1 to 3 µM. For the same molecule, in the data set on Smn protein, the maximal fold induction was 1.2 to 1.35.
With `COc1ccc(-c2cc(=O)c3cc(N4CCN[C@@H](C)C4)ccc3o2)cc1OC` [Cpd 31, 2-(3,4-dimethoxyphenyl)-6-[(3S)-3-methylpiperazin-1-yl]-4H-chromen-4-one], the melting point fell in the range of 172 to 174 °C. Moreover, the EC (1.5-fold) in data set [1] is at most 0.1 µM. Besides, in the data set with Smn protein, the maximal fold induction is over 1.65 and the EC (1.5-fold) is at most 0.3 µM.
`O=c1cc(-c2nc3ccccc3s2)oc2ccc(N3CCNCC3)cc12` [Cpd 32, 2-(1,3-benzothiazol-2-yl)-6-(piperazin-1-yl)-4H-chromen-4-one] showed a melting point of 250 to 254 °C. For the same molecule, in data set [1], the EC (1.5-fold) lay in the range of 1 to 3 µM. The maximal fold induction with Smn protein fell in the range of 1.2 to 1.35.
In turn, `C[C@@H]1CN(c2ccc3oc(-c4nc5ccccc5s4)cc(=O)c3c2)CCN1` [Cpd 33, 2-(1,3-benzothiazol-2-yl)-6-[(3R)-3-methylpiperazin-1-yl]-4H-chromen-4-one] yielded a melting point of 142 to 144 °C. Besides, in data set [1], the EC (1.5-fold) fell in the range of 1 to 3 µM. Further, the maximal fold induction in the data set with Smn protein lay in the range of 1.2 to 1.35.
Molecule `C[C@@H]1CN(c2ccc3oc(-c4nc5ccccc5s4)cc(=O)c3c2)C[C@H](C)N1` [Cpd 34, 2-(1,3-benzothiazol-2-yl)-6-[(3R,5S)-3,5-dimethylpiperazin-1-yl]-4H-chromen-4-one] came in with a melting point of 200 to 202 °C. In data set [1], the EC (1.5-fold) was 0.3 to 1 µM. Moreover, the maximal fold induction in the data set on Smn protein is 1.35 to 1.5.
As to `CN1CCN(c2ccc3oc(-c4nc5ccccc5s4)cc(=O)c3c2)CC1` [Cpd 35, 2-(1,3-benzothiazol-2-yl)-6-(4-methylpiperazin-1-yl)-4H-chromen-4-one], the melting point lay in the range of 215 to 220 °C. The EC (1.5-fold) in data set [1] fell in the range of 1 to 3 µM. For the same molecule, in the data set with Smn protein, the maximal fold induction lay within 1.2 to 1.35.
Take `C[C@H]1CN(c2ccc3oc(-c4nc5ccccc5s4)cc(=O)c3c2)CCN1` [Cpd 36, 2-(1,3-benzothiazol-2-yl)-6-[(3S)-3-methylpiperazin-1-yl]-4H-chromen-4-one]: the melting point was 140 to 142 °C. Moreover, the EC (1.5-fold) in data set [1] was 0.3 to 1 µM. Also, in the data set with Smn protein, the maximal fold induction lay within 1.5 to 1.65 and the EC (1.5-fold) lay within 1 to 3 µM.
